Data from patent US20190083497A1, “MODULATION OF BLOOD BRAIN BARRIER PERMEABILITY” (Cornell University, priority 2008, published 2019).

Legend:
hCMEC/D3 cells [1] = assay: Jurkat cell migration across hCMEC/D3 transwell in vitro BBB; format: cell-based, human; conditions: hCMEC/D3 on Transwell; migrated cells counted after 24 hours
Source text: The blood brain barrier (BBB) is comprised of endothelial cells. During late stages of EAE, lymphocytes are known to cross the BBB. In order to determine if adenosine receptor stimulation of brain endothelial cells could promote lymphocyte migration through the BBB, an in vitro BBB was established. The human brain endothelial cell line hCMEC/D3 (Weksler et al., “Blood-brain Barrier-specific Properties of a Human Adult Brain Endothelial Cell Line,” J. Neurochem. 19(13):1872-4 (2005); Poller et al., “The Human Brain Endothelial Cell Line hCMEC/D3 as a Human Blood-brain Barrier Model for Drug Transport Studies,” J. Neurochem. 107(5):1358-1368 (2008), which are hereby incorporated by reference in their entirety) was obtained, which has been previously described as having BBB properties.
hCMEC/D3 cells were seeded onto Transwell and allowed to grow to confluencey. 2×10^6 Jurkat cells were added to the upper chamber with or without NECA (general adenosine receptor [AR] agonist), CCPA (A1AR agonist), CGS 21680 (A2AAR agonist), or DMSO vehicle. After 24 hours, migrated cells in the lower chamber were counted. Values are relative to the number of cells that migrate through non-HCMECD3 seeded transwells.

hCMEC/D3 cells [2] = assay: cAMP levels in hCMEC/D3 cells (cAMP Screen kit); format: cell-based, human; conditions: 15 minutes treatment
Experimental: Adenosine receptor activation regulates cAMP levels in cells. In order to determine the sensitivity of human brain endothelial cells to adenosine receptor induced cAMP regulation, human brain endothelial cells were cultured with adenosine receptor agonists at various concentrations, followed by cAMP level analysis, as shown in FIG. 13.
HCMECD3 cells were grown to confluencey on 24 well plates. As adenosine receptor (“AR”) stimulation is known to influence cAMP levels, cells were treated with or without various concentrations of NECA (general AR agonist), CCPA (A1AR agonist), CGS 21680 (A2AAR agonist), DMSO vehicle, or Forksolin (induces cAMP). After 15 minutes, lysis buffer was added and the cells were frozen at −80 C to stop the reaction. Duplicate samples were used for each condition. cAMP levels were assayed using a cAMP Screen kit (Applied Biosystems, Foster City, Calif.).

Z310 cells = assay: Jurkat cell migration across Z310 choroid plexus cell transwell; format: cell-based, murine; conditions: Z310 cells on Transwell; migrated cells counted after 24 hours; n=1
Experimental: The choroid plexus (“CP”) controls lymphocyte migration into the CNS. The CP expresses the A1 and A2a adenosine receptors. EAE is prevented in mice when A2a adenosine receptor activity is blocked. EAE is enhanced when the A1 adenosine receptor is missing. It was hypothesized that A2a adenosine receptor activation promotes lymphocyte migration across the CP. Z310 cells are a murine choroid plexus cell line. To test the hypothesis, Transwell membranes were seeded with Z310 cells and allowed to grow to confluencey. 2×10^6 Jurkat cells were added to the upper chamber with or with out NECA (n=1, general AR agonist), CCPA (n=1, A1AR agonist), CGS 21680 (n=1, A2AAR agonist), or DMSO vehicle(n=1). After 24 hours, migrated cells in the lower chamber were counted. Values are relative to the number of cells that migrate through non-Z310 seeded transwells and the results are shown in FIG. 12.

blood brain barrier = assay: FITC-Dextran extravasation through the brain endothelium; format: in vivo, mouse; conditions: 30 minutes after IP FITC Dextran
Experimental: In order to examine the effects of caffeine, a general adenosine receptor antagonist, on blood brain barrier permeability, mice were fed caffeine for several days and then injected with FITC Dextran, commonly used to assess endothelial permeability.
More particularly, mice were fed 0.6 g/l caffeine (Sigma, St. Louis, Mo.) in water or regular water ad lib for five days. Mice were injected IP with FITC Dextran (10,000 MW, Molecular Probes, Eugene, Oreg.) and after 30 minutes mice were perfused with ice cold PBS via the left ventricle. Brains were removed and snap frozen in OCT (Tissue Tek, Torrance, Calif.) and stored at −80° C. until sectioning. Tissue sections (5 μm) were stained with hematoxylin for light microscopy and with DAPI for a fluorescent counterstain.

EAE-induced mice = assay: EAE induction and scoring (MOG35-55/CFA + pertussis toxin); format: in vivo, mouse
Experimental: C57BL/6 and tcrα^−/− mice on the C57BL/6 background were purchased from The Jackson Laboratories. Mice were bred and housed under specific pathogen-free conditions at Cornell University or the University of Turku. For adenosine receptor blockade experiments, mice were given drinking water supplemented with 0.6 g/L of caffeine (Sigma) or 2 mg/kg SCH58261 (1 mg/kg s.c. and 1 mg/kg i.p.) in DMSO (45% vol. in PBS) or 45% DMSO alone starting 1 day before EAE induction and continuing throughout the experiment. All procedures performed on mice were approved by the relevant animal review committee.
EAE was induced by subjecting mice to the myelin oligodendrocyte glycoprotein (“MOG”) EAE-inducing regimen as described in Swanborg, “Experimental Autoimmune Encephalomyelitis in Rodents as a Model for Human Demyelinating Disease,” Clin. Immunol. […] Briefly, a 1:1 emulsion of MOG35-55 peptide (3 mg/ml in PBS) (Invitrogen) and complete Freund's adjuvant (CFA, Sigma) was injected subcutaneously (50 μl) into each flank. Pertussis toxin (PTX, 20 ng) (Biological Laboratories Inc.) was given intravenously (200 μl in PBS) at the time of immunization and again 2 days later. Mice were scored daily for EAE based on disease symptom severity; 0=no disease, 0.5 -1=weak/limp tail, 2=limp tail and partial hind limb paralysis, 3=total hind limb paralysis, 4=both hind limb and fore limb paralysis, 5=death. Mice with a score of 4 were euthanized.
Wild type mice were given 1 mg/kg of SCH58261 in DMSO or DMSO alone both i.p. and s.c. (for a total of 2 mg/kg) 1 day prior to EAE induction and daily for 30 days throughout the course of the experiment (FIG. 7C).

For CCNC(=O)[C@H]1O[C@@H](n2cnc3c(N)nc(NCCc4ccc(CCC(=O)O)cc4)nc32)[C@H](O)[C@@H]1O [CGS], the “lymphocyte (Jurkat) migration across the in vitro BBB” value (hCMEC/D3 cells [1]) was “promoted lymphocyte migration across the in vitro BBB when used at a lower concentration”, the cAMP levels (hCMEC/D3 cells [2]; various concentrations) was “slightly increased cAMP levels” and the “lymphocyte (Jurkat) migration across the CP” value (Z310 cells) was “promoted lymphocyte migration across the CP”.

With OC[C@H]1O[C@@H](n2cnc3c(NC4CCCC4)nc(Cl)nc32)[C@H](O)[C@@H]1O [CCPA] the “lymphocyte (Jurkat) migration across the in vitro BBB” value (hCMEC/D3 cells [1]) was “induced lymphocyte migration at high levels”, the cAMP levels (hCMEC/D3 cells [2]; high levels of the agonist) was “increased cAMP levels” and the “lymphocyte (Jurkat) migration across the CP” value (Z310 cells) was “induced lymphocyte migration at high levels”.

Cn1c(=O)c2c(ncn2C)n(C)c1=O [caffeine] was tested, and the “FITC-Dextran extravasation across the blood brain barrier (green color of brain sections)” value (blood brain barrier; CD73-/- mice fed 0.6 g/l caffeine in water for five days) was “much less intense green color than wild type mice”, the “FITC-Dextran extravasation across the blood brain barrier (green color of brain sections)” value (blood brain barrier; wild type mice fed 0.6 g/l caffeine in water for five days) was “intensely green background” and the “EAE development (mean EAE score)” value (EAE-induced mice; cd73-/- mice, caffeine 0.6 g/L in drinking water from 1 day prior to and throughout the EAE experiment) was “did not develop EAE”. The “EAE development (mean EAE score)” value (EAE-induced mice; wild type mice, caffeine 0.6 g/L in drinking water from 1 day prior to and throughout the EAE experiment) was “dramatically protected against EAE development”.

B1: PEG-ADA: Pegylated adenosine deaminase (protein, UniProt P56658 2-363, looked up)
Adenosine deaminase: AQTPAFNKPKVELHVHLDGAIKPETILYYGRKRGIALPADTPEELQNIIGMDKPLSLPEFLAKFDYYMPAIAGCREAVKRIAYEFVEMKAKDGVVYVEVRYSPHLLANSKVEPIPWNQAEGDLTPDEVVSLVNQGLQEGERDFGVKVRSILCCMRHQPSWSSEVVELCKKYREQTVVAIDLAGDETIEGSSLFPGHVKAYAEAVKSGVHRTVHAGEVGSANVVKEAVDTLKTERLGHGYHTLEDATLYNRLRQENMHFEVCPWSSYLTGAWKPDTEHPVVRFKNDQVNYSLNTDDPLIFKSTLDTDYQMTKNEMGFTEEEFKRLNINAAKSSFLPEDEKKELLDLLYKAYGMPSPASAEQCL
modifications: PEG
notes: Pegylated adenosine deaminase
For B1, the “EAE development (mean EAE score)” value (EAE-induced mice; wild type mice, 15 units/kg body weight i.p. every 4 days, vs PBS vehicle) was “inhibits development of EAE in wild type mice”.
